Reference: patent US20060235078A1, “Insulin secretion potentiator” (Use-Techno Corporation, priority 2003, published 2006)

The compounds below were run on borderline diabetic patients (assay: glucose tolerance test after administration of corosolic acid or placebo, blood insulin level (IRI) assayed). Conditions: 31 borderline diabetic patients, 10 mg oral, 75 g oral glucose load, 30 minutes after start of glucose tolerance test.
Format: in vivo, human
Method: The following test was conducted to confirm that corosolic acid has an early insulin secretion stimulating effect. A glucose tolerance test was performed after administration of corosolic acid or a placebo, in a double-blind crossover manner, and the blood insulin level (IRI: immunoreactive insulin) was assayed. Significant change in the IRI was judged by Student's t-test with the significance level (p value) as 0.05.
First, 31 borderline diabetic patients as test subjects were orally administered corosolic acid (10 mg, ≧99% purity) or a placebo, and blood was sampled immediately thereafter with the blood insulin level at that time designated as the value at 0 minutes. Immediately after blood sampling, 75 g of glucose was orally administered to each test subject to start a glucose tolerance test, and blood was sampled after periods of 30 minutes, 60 minutes, 90 minutes, 120 minutes and 180 minutes for measurement of the blood insulin level.
FIG. 1 is a graph showing changes in the blood insulin levels during the glucose tolerance test. The horizontal axis represents time (minutes) after start of the glucose tolerance test, and the vertical axis represents IRI (μU/mL). In the graph, (a) is a case with administration of corosolic acid and (b) is a case with administration of the placebo.

Row | SMILES | blood insulin level (IRI) compared to placebo
1 | C[C@H]1[C@H](C)CC[C@]2(C(=O)O)CC[C@]3(C)C(=CC[C@@H]4[C@@]5(C)C[C@@H](O)[C@H](O)C(C)(C)[C@@H]5CC[C@]43C)[C@H]12 [corosolic acid] | significant increase in blood insulin level

Same assay, conditions: 31 borderline diabetic patients, 10 mg oral, 75 g oral glucose load, 120 minutes after start of glucose tolerance test

Row | SMILES | blood insulin level (IRI) compared to placebo
2 | C[C@H]1[C@H](C)CC[C@]2(C(=O)O)CC[C@]3(C)C(=CC[C@@H]4[C@@]5(C)C[C@@H](O)[C@H](O)C(C)(C)[C@@H]5CC[C@]43C)[C@H]12 [corosolic acid] | significant drop in blood insulin level

Each compound was assayed on KK-Ay mice (assay: blood glucose level in KK-Ay mice (genetic type II diabetes model) after oral administration). Conditions: 10 mg/kg oral, blood sampled before and at 4 and 7 hours after administration (tormentic acid: before and 4 hours), n=4, p 0.05.
Format: in vivo
Method: KK-Ay mice (CLEA Japan, Inc.), a genetic type II diabetes model, were used as the test animals. […] The animal feeding conditions were at constant temperature (22±2° C.) throughout the test period, and the light-dark period was 12 hours (light period: 9:00 am-9:00 pm). The feed (CE-2, CLEA Japan, Inc.) and water (tap water) were made freely available. The test substance was forcefully administered to the KK-Ay mice using a glass syringe and oral probe. The dose of each test substance was 10 mg/kg. Blood was sampled from the ocular fundus, immediately prior to and at 4 hours and 7 hours after the administration (for tormentic acid, immediately prior to and at 4 hours after the administration). The blood glucose was measured with a Glucose CII Test Wako (Wako Pure Chemical Industries Co., Ltd.).
The test substances used for this example were: corosolic acid (isolated from banaba leaves), maslinic acid (isolated from banaba leaves), asiatic acid (purchased from LKT Laboratories), 2α,19α-dihydroxy-3-oxo-urs-12-en-28-oic acid (isolated from loquat callus), ursolic acid (purchased from LKT Laboratories), oleanolic acid (purchased from LKT Laboratories), α-amyrin (purchased from LKT Laboratories), β-amyrin (purchased from LKT Laboratories), hederagenin (purchased from LKT Laboratories), 18β-glycyrrhetinic acid (purchased from Wako Pure Chemical Industries Co., Ltd.), sapindoside B (isolated from soapberry), and tormentic acid (isolated from loquat callus).
The blood glucose levels were measured using four KK-Ay mice for each test substance. The measurement results were recorded as mean±SE. Significant change in the blood glucose level was judged by Student's t-test with the significance level (p value) as 0.05.

Row | SMILES | hypoglycemic effect (change in blood glucose level)
3 | C[C@@H]1CC[C@]2(C(=O)O)CC[C@]3(C)C(=CC[C@@H]4[C@@]5(C)C[C@@H](O)C(=O)C(C)(C)[C@@H]5CC[C@]43C)[C@@H]2[C@]1(C)O [2α,19α-dihydroxy-3-oxo-urs-12-en-28-oic acid] | significant hypoglycemic effects
4 | CC1(C)[C@@H](O)CC[C@]2(C)[C@H]3C(=O)C=C4[C@@H]5C[C@@](C)(C(=O)O)CC[C@]5(C)CC[C@@]4(C)[C@]3(C)CC[C@@H]12 [18β-glycyrrhetinic acid] | no definite hypoglycemic effect
5 | CC1(C)CC[C@]2(C(=O)O)CC[C@]3(C)C(=CC[C@@H]4[C@@]5(C)C[C@@H](O)[C@H](O)C(C)(C)[C@@H]5CC[C@]43C)[C@@H]2C1 [Maslinic acid, maslinic acid] | did not exhibit a significant hypoglycemic effect but did exhibit a tendency toward reducing blood glucose level
6 | C[C@H]1[C@H](C)CC[C@]2(C(=O)O)CC[C@]3(C)C(=CC[C@@H]4[C@@]5(C)C[C@@H](O)[C@H](O)[C@@](C)(CO)[C@@H]5CC[C@]43C)[C@H]12 [asiatic acid] | significant hypoglycemic effects
7 | C[C@H]1[C@H](C)CC[C@]2(C(=O)O)CC[C@]3(C)C(=CC[C@@H]4[C@@]5(C)C[C@@H](O)[C@H](O)C(C)(C)[C@@H]5CC[C@]43C)[C@H]12 [corosolic acid] | significant hypoglycemic effects
8 | CC1(C)CC[C@]2(C(=O)O)CC[C@]3(C)C(=CC[C@@H]4[C@@]5(C)CC[C@H](O)[C@@](C)(CO)[C@@H]5CC[C@]43C)[C@@H]2C1 [hederagenin] | no definite hypoglycemic effect
9 | CC1(C)CC[C@]2(C(=O)O)CC[C@]3(C)C(=CC[C@@H]4[C@@]5(C)CC[C@H](O)C(C)(C)[C@@H]5CC[C@]43C)[C@@H]2C1 [oleanolic acid] | no definite hypoglycemic effect
10 | C[C@@H]1O[C@@H](O[C@H]2[C@H](O[C@H]3CC[C@@]4(C)[C@@H](CC[C@]5(C)[C@@H]4CC=C4[C@@H]6CC(C)(C)CC[C@]6(C(=O)O)CC[C@]45C)[C@]3(C)CO)OC[C@H](O)[C@@H]2O)[C@H](O)[C@H](O[C@@H]2OC[C@@H](O)[C@H](O)[C@H]2O)[C@H]1O [sapindoside B] | no definite hypoglycemic effect
11 | C[C@@H]1CC[C@]2(C(=O)O)CC[C@]3(C)C(=CC[C@@H]4[C@@]5(C)C[C@@H](O)[C@H](O)C(C)(C)[C@@H]5CC[C@]43C)[C@@H]2[C@]1(C)O [tormentic acid] | significant hypoglycemic effects
12 | C[C@H]1[C@H](C)CC[C@]2(C(=O)O)CC[C@]3(C)C(=CC[C@@H]4[C@@]5(C)CC[C@H](O)C(C)(C)[C@@H]5CC[C@]43C)[C@H]12 [ursolic acid] | no definite hypoglycemic effect
13 | C[C@H]1[C@H](C)CC[C@]2(C)CC[C@]3(C)C(=CC[C@@H]4[C@@]5(C)CC[C@H](O)C(C)(C)[C@@H]5CC[C@]43C)[C@H]12 [α-amyrin] | no definite hypoglycemic effect
14 | CC1(C)CC[C@]2(C)CC[C@]3(C)C(=CC[C@@H]4[C@@]5(C)CC[C@H](O)C(C)(C)[C@@H]5CC[C@]43C)[C@@H]2C1 [β-amyrin] | no definite hypoglycemic effect
